{"source": "paper PMC2782674", "about": "(Biochemistry, 2009)", "key": {"YxeB (Bc_0383)": {"molecular_target": "T1, YxeB (Bc_0383) (Bacillus cereus, UniProt Q81IK3)", "T1 sequence (Q81IK3 20-306)": "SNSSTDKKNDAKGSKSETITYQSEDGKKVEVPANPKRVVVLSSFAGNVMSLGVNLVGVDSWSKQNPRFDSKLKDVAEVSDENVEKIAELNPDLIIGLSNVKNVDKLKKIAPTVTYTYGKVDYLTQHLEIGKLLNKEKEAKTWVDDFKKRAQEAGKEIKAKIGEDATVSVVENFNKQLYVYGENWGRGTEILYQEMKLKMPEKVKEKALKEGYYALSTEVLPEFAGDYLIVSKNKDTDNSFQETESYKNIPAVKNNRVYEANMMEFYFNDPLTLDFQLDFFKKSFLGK", "format": "binding, B. cereus ATCC 14579", "settings": "for Kd: pH 7"}, "FpuA (Bc_4528) [1]": {"molecular_target": "T2, FpuA (Bc_4528) (Bacillus cereus, UniProt Q817L3)", "T2 sequence (Q817L3 19-324)": "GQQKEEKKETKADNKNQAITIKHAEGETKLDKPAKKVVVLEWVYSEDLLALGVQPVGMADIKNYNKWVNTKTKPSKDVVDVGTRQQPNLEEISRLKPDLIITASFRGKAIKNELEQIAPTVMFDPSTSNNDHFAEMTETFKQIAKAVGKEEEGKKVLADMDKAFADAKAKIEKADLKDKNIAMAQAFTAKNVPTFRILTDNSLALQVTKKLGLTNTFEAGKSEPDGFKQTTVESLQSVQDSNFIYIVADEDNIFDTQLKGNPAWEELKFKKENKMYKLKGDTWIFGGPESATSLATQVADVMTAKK", "settings": "pH 6.8"}, "FpuA (Bc_4528) [2]": {"molecular_target": "T2, FpuA (Bc_4528)", "format": "binding, B. cereus ATCC 14579"}, "FatB (Bc_5106) [3]": {"molecular_target": "T3, FatB (Bc_5106) (Bacillus cereus, UniProt Q815N5)", "T3 sequence (Q815N5 24-338)": "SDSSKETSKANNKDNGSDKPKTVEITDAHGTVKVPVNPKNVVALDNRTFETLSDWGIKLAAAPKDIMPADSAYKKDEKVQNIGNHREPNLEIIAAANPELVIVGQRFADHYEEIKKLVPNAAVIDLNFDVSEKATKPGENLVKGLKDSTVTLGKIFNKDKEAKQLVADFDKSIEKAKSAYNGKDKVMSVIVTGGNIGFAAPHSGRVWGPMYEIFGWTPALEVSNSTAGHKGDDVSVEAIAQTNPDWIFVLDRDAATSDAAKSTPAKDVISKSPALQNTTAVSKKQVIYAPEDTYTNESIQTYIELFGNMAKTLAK", "format": "binding, B. cereus ATCC 14579"}, "FatB (Bc_5106) [4]": {"molecular_target": "T3, FatB (Bc_5106)", "settings": "pH 6.8"}, "B. cereus ATCC 14579 [5]": {"tested_on": "B. cereus ATCC 14579", "format": "cell-based, Bacillus cereus"}, "FeuA (Bc_3738)": {"molecular_target": "T4, FeuA (Bc_3738) (Bacillus cereus, UniProt Q81A53)", "T4 sequence (Q81A53 22-321)": "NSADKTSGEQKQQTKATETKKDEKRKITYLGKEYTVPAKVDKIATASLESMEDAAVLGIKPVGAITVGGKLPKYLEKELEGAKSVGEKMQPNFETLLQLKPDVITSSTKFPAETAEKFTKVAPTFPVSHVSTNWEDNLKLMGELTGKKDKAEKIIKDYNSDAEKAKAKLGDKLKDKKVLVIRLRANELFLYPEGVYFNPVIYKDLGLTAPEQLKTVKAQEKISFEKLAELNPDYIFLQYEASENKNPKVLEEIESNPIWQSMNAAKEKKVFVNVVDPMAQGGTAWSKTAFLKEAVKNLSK", "test": "biochemical", "format": "binding, B. cereus ATCC 14579"}, "B. cereus ATCC 14579 [6]": {"tested_on": "B. cereus ATCC 14579", "format": "cell-based, Bacillus cereus", "remark": "listed apart in the source"}}, "note": "“Also recorded” adds a separate entry of the source. Where two headings read alike, the source gives them in different places. Square brackets hold non-standard residues; d marks the D form. Peptide text beside a SMILES is read from it. Orn(N5-OH,N5-Ac) = CC(=O)N(O)CCC[C@H](N)C(=O)O", "data": [{"molecule": "CC(=O)N([O-])CCC[C@@H]1NC(=O)CNC(=O)CNC(=O)CNC(=O)[C@H](CCCN([O-])C(C)=O)NC(=O)[C@H](CCCN([O-])C(C)=O)NC1=O.[Fe+3]", "note": "[Fch, ferrichrome] (cyclo(GGG[Orn(N5-OH,N5-Ac)][Orn(N5-OH,N5-Ac)][Orn(N5-OH,N5-Ac)]))", "values": [{"measurement": "change of YxeB fluorescence on binding", "setting": "YxeB (Bc_0383)", "result": "increase of SBP fluorescence"}, {"measurement": "noncovalent complex with FpuA by ESI-MS (Molecular weight Measured)", "setting": "FpuA (Bc_4528) [1]", "result": "no protein-ligand complexes were detected"}, {"measurement": "binding of the aposiderophore to FpuA", "setting": "FpuA (Bc_4528) [2]", "result": "did not bind"}, {"measurement": "unspecific protein emission quenching of FpuA", "setting": "FpuA (Bc_4528) [2]", "result": "10-20%"}]}, {"molecule": "ferric citrate", "values": [{"measurement": "noncovalent complex with FpuA by ESI-MS (Molecular weight Measured)", "setting": "FpuA (Bc_4528) [1]", "result": "no protein-ligand complexes were detected"}, {"measurement": "ligand recognition by FpuA", "setting": "FpuA (Bc_4528) [2]", "result": "no recognition"}, {"measurement": "ligand recognition by FatB", "setting": "FatB (Bc_5106) [3]", "result": "no recognition"}, {"measurement": "noncovalent complex with FatB by ESI-MS (Molecular weight Measured)", "setting": "FatB (Bc_5106) [4]", "result": "no protein-ligand complexes were detected"}]}, {"molecule": "CC(=O)N(O)CCCCCNC(=O)CCC(=O)N(O)CCCCCNC(=O)CCC(=O)N(O)CCCCCN.[Fe+3]", "note": "[FeDFO]", "values": [{"measurement": "effect on transport of ^55FeFch", "setting": "B. cereus ATCC 14579 [5]", "result": "inhibited"}, {"measurement": "Kd", "setting": "YxeB (Bc_0383)", "result": 18, "unit": "nM"}]}, {"molecule": "FeEnt", "values": [{"measurement": "Kd", "setting": "FeuA (Bc_3738); pH 7", "result": 12, "unit": "nM"}]}, {"molecule": "CC(=O)N(O)CCCNC(=O)CC(O)(CC(=O)NCCCN(O)C(C)=O)C(=O)O", "note": "[Sch, schizokinen]", "values": [{"measurement": "ligand recognition by FpuA", "setting": "FpuA (Bc_4528) [2]", "result": "binding incompatibility"}]}, {"molecule": "O=C(O)c1ccc(O)c(O)c1", "note": "[3,4-DHB, 3,4-dihydroxybenzoic acid]", "values": [{"measurement": "effect on uptake of radioactive ferric PB", "setting": "B. cereus ATCC 14579 [5]", "result": "inhibited"}, {"measurement": "effect on uptake of radioactive ferric PB^ν", "setting": "B. cereus ATCC 14579 [5]", "result": "inhibited"}, {"measurement": "noncovalent complex with FpuA by ESI-MS (Molecular weight Measured)", "setting": "FpuA (Bc_4528) [1]", "result": "not observed"}, {"measurement": "Km", "setting": "B. cereus ATCC 14579 [6]", "result": "0.4 ± 0.1", "unit": "µM"}, {"measurement": "vmax", "setting": "B. cereus ATCC 14579 [6]", "result": "2.3 ± 0.1", "unit": "pmol Fe mL^-1 min^-1"}, {"measurement": "ligand recognition by FpuA", "setting": "FpuA (Bc_4528) [2]", "result": "not specifically quenched"}]}, {"molecule": "O=C(CC(O)(CC(=O)NCCCCNCCCNC(=O)c1ccc(O)c(O)c1)C(=O)O)NCCCCNCCCNC(=O)c1ccc(O)c(O)c1", "note": "[PB, petrobactin]", "values": [{"measurement": "effect on incorporation of radioactive ferric Ent", "setting": "B. cereus ATCC 14579 [5]", "result": "only slightly affected"}, {"measurement": "effect on uptake of radioactive ferric 3,4-DHB", "setting": "B. cereus ATCC 14579 [5]", "result": "inhibited"}, {"measurement": "effect on uptake of radioactive ferric PB", "setting": "B. cereus ATCC 14579 [5]", "result": "inhibited"}, {"measurement": "effect on uptake of radioactive ferric PB^ν", "setting": "B. cereus ATCC 14579 [5]", "result": "inhibited"}, {"measurement": "noncovalent complex with FpuA by ESI-MS (Molecular weight Measured)", "setting": "FpuA (Bc_4528) [1]", "result": "not observed"}, {"measurement": "Kd", "setting": "FpuA (Bc_4528) [2]; pH 7", "result": 23, "unit": "nM"}, {"measurement": "noncovalent complex with FatB by ESI-MS (Molecular weight Measured)", "setting": "FatB (Bc_5106) [4]", "result": "not observed"}]}, {"molecule": "C[C@H]1OC(=O)[C@@H](NC(=O)CNC(=O)c2cccc(O)c2O)[C@@H](C)OC(=O)[C@@H](NC(=O)CNC(=O)c2cccc(O)c2O)[C@@H](C)OC(=O)[C@H]1NC(=O)CNC(=O)c1cccc(O)c1O", "note": "[BB, bacillibactin]", "values": [{"measurement": "Kd", "setting": "FeuA (Bc_3738); pH 7", "result": 59, "unit": "nM"}, {"measurement": "ligand recognition by FatB", "setting": "FatB (Bc_5106) [3]", "result": "binding incompatibility; also recorded: no affinity"}]}, {"molecule": "CC(=O)N(O)CCCCCNC(=O)CCC(=O)N(O)CCCCCNC(=O)CCC(=O)N(O)CCCCCN", "note": "[DFO, desferrioxamine B]", "values": [{"measurement": "change of YxeB fluorescence on binding", "setting": "YxeB (Bc_0383)", "result": "increase of SBP fluorescence"}]}, {"molecule": "O=C(N[C@H]1COC(=O)[C@@H](NC(=O)c2cccc(O)c2O)COC(=O)[C@@H](NC(=O)c2cccc(O)c2O)COC1=O)c1cccc(O)c1O", "note": "[Ent, enterobactin]", "values": [{"measurement": "Kd", "setting": "FeuA (Bc_3738)", "result": 36, "unit": "nM"}]}, {"molecule": "CC(=O)N(O)CCC[C@@H]1NC(=O)CNC(=O)CNC(=O)CNC(=O)[C@H](CCCN(O)C(C)=O)NC(=O)[C@H](CCCN(O)C(C)=O)NC1=O.[Fe+3]", "note": "[FeFch] (cyclo(GGG[Orn(N5-OH,N5-Ac)][Orn(N5-OH,N5-Ac)][Orn(N5-OH,N5-Ac)]))", "values": [{"measurement": "effect on uptake of ^55FeDFO", "setting": "B. cereus ATCC 14579 [5]", "result": "inhibited"}, {"measurement": "Kd", "setting": "YxeB (Bc_0383)", "result": 30, "unit": "nM"}]}]}
